From patent US20020102533A1, “Hepatitis C protease exosite for inhibit or design” (priority 2000, published 2002)
Like-named read-outs stand apart in the source and are kept apart here. Where a SMILES comes first, the peptide text is derived from it. [ ]: non-standard residue; d: D form. Dip = N[C@H](C(=O)O)C(c1ccccc1)c1ccccc1; Cha = N[C@@H](CC1CCCCC1)C(=O)O

Legend:
[1] = biological target: T1, HCV protease (Hepatitis C virus genotype 1b, UniProt P26663); conditions: read-out: inhibitor of HCV protease (potency); 13 residue substrate spanning P6-P7′; cited from earlier work
[2] = biological target: T2, HCV NS3 protease, genotype 1a (Hepatitis C virus genotype 1a, UniProt P26664); assay: biochemical; format: biochemical
T2 construct: NS3 protease catalytic domain (amino acids 1 to 192); MGAQH expression leader (5 aa), or alternatively the 15 aa His tag […]; made in house; host or cells: E. coli BL21 (DE3)
Procedure: Endpoint HPLC based HCV protease assay: HCV protease (5 nM) was incubated in 50 mM Tris pH 7.5, 0.1% maltoside, 5 mM DTT and appropriate amounts of glycerol, NS4A peptide, and substrate. Routine assays were 100 μl in volume containing 15% or 50% glycerol, 5.0 μM NS4A peptide and 5.0 μM substrate. Reactions were run at room temperature (˜22° C.) and quenched by the addition of 4 μl of 10% TFA before 10% of the substrate was consumed. Incubation times were 20 minutes for the ester substrate (Peptide Substrate A) and 80 minutes for the P6-P7′ amide substrate (Peptide Substrate B). […] Incubation times were 90 min. Samples, 50 μl, were injected onto an Hewlett Packard 1090 Liquid Chromatograph containing a Dynamax-60A C18 column. The column was eluted with a linear gradient from 10% acetonitrile to 45% acetonitrile in water. All solvents contained 0.1% TFA. A flow rate of 1 ml/min was used. […] The product peaks were detected by fluorescence excitation at 350 nm and emission at 500 nm.
Continuous fluorescence-based HCV protease assay: This asay was a modified version of method of Taliani (Taliani, M.; et al. Anal. Biochem. 240, 60-67, 1996) using Substrate A (Ac-D-E-D(EDANS)-E-E-Abuψ[COO]-A-S-K(DABCYL)—NH2). Assays were run in a 96-well microtiter plates using a Perkin Elmer Luminescence Spectrometer LS50B exciting at 350 nm (10 nm slit) and emitting at 500 nm (10 nm slit). In a typical assay the protease (1-4 nM) was incubated with 10 μM NS4a peptide in 50 mM Tris pH 7.0, 5.0 mM DTT, 50% glycerol, and […] for 15 min. Catalysis was initiated by the addition of Substrate A (final concentration 5.0 μM). Assays were also run under conditions where 15% glycerol, 0.1% Maltoside were substituted for 50% glycerol and 5% CHAPS. Enzymatic activity was monitored by measuring the increase in fluorescence with time using excitation wavelength of 350 nm and an emission wavelength of 500 nm. Both slit widths were 10 nm. Inhibition constants were determined from a nonlinear least squares fit of the data to the equation Vi/Vo=1/(1+[I]/Kiapp). Where Vi is the velocity measured in the presence of inhibitor (inhibitors were introduced with the NS4a peptide) and Vo is the velocity of controls. The thermodynamic Ki was determined from Kiapparent via the relationship for competitive kinetics: Ki=Kiapp/(1+[S]/Km) where [S] is the substrate concentration.
Footnote a for Table 1 references the assay condiditions: 1) Substrate A=P6-P3′, HCV protease (4.0 nM) was incubated with various concentrations of truncated analogs of Q9692 in 50 mM Tris buffer, pH 7.0, 15% glycerol, 0.1% maltoside, 5 mM DTT and 10 μM NS4A peptide in a 96-well microtiter plate at room temperature. After 15 minutes catalysis was initiated by the addition of Ac-D-E-D(EDANS)-E-E-Abuψ[COO]-A-S-K(DABCYL)—NH2 (final concentration 5.0 μM in a total reaction volume of 200 μl). Enzymatic activity was monitored by measuring the increase in fluorescence with time on a Perkin Elmer LS50B luminescence spectrometer (excitation 350 nm, emission 500 nm, both slits 10 nm). […] Assays were 100 μl in volume, reactions were run at room temperature (˜22 C) for 80 minutes (<10% of the substrate was consumed). The addition of 4 μl of 10% TFA quenched the reactions. Quantitation of hydrolysis products was determined by measuring fluorescent peak areas following HPLC. Products were detected by excitation at 350 nm and measuring emission at 500 nm. Aliquots (50 μl) of quenched enzymatic reactions were injected on an Hewlett Packard 1090 HPLC equipped with a ¼ inch Dynamex 60A C18 column. A linear gradient from 10% acetonitrile:H2O to 45% acetonitrile:H2O was run over a period of 15 min at a flow rate of 1.0 ml/min. All solvents contained 0.1% TFA.

[3] = biological target: T1, HCV protease; conditions: substrate Ac-[…](Edans)—NH2; cited from earlier work
[4] = biological target: T2, HCV NS3 protease, genotype 1a; format: biochemical; conditions: P6-P3′ ester substrate, NS4a=0, relative to controls without Q9692
[5] = biological target: T3, HCV protease 2A (Hepatitis C virus genotype 2a, UniProt P26660); assay: HCV protease type 2a, 9-mer substrate; format: biochemical
T3 construct: the catalytic domains of types 1b, 1J and 2a have also been examined
Description: It is understood that other forms of HCV protease may be used in an assay for the determination of inhibitors. The present invention has disclosed the 1A form of HCV protease, however, the catalytic domains of types 1b, 1J and 2a have also been examined, as well as, the full-length version of form 1b. Evidence for the exosite exists in each case. Activation by Q9692 follows the trend of activation by NS4a. Forms of the enzyme that are more sensitive to NS4a display greater stimulation by Q9692 than forms that are less sensitive. In rank order sensitivity is 1J, 1B, 1A, and 2A. The catalytic activity of 2A toward the 9-mer substrate is enhanced by only 1.5-fold at 4 μM Q9692 and becomes inhibited by Q9692 at concentrations greater than 20 μM. […] Use of alternative forms of the HCV protease is relevent to development of an inexpensive and easy continous assay.

[6] = P6-P3′ ester substrate, 2 μM Q9692

CC(=O)N[C@@H](CC(=O)O)C(=O)N[C@@H](CCC(=O)O)C(=O)N[C@H](C(=O)N[C@@H](CCC(=O)O)C(=O)N[C@@H](CC1CCCCC1)C(=O)N[C@@H](CS)C(=O)O)C(c1ccccc1)c1ccccc1 [Q9692, Ac-Asp-Glu-Dpa-Glu-Cha-Cys—OH] (Ac-DE[Dip]E[Cha]C-OH)
Ki [1]: 50 nM
Dixon plots of 1/V versus Q9717 concentration ([2]; 5 μM substrate spanning P6-P3′): intersecting lines
concentration of maximum stimulation ([2]; P6-P3′ ester substrate): 4 µM
concentrations at which inhibition was observed ([2]; P6-P3′ ester substrate): greater than 10.0 μM
kcat of substrate [2, 6]: relatively unchanged
reduction in Km of substrate [2, 6]: 5 fold
activation of the enzyme (maximum stimulation) ([2]; P6-P3′ ester substrate, maximum at 4 μM Q9692): approximately 5 fold
(S = P6-P3′) Inhibition(+) / Activation (−) ([2]; substrate A): −
Ki [3]: 50 nM
relative activity of the protease [4]: ~1
concentrations at which enzyme becomes inhibited [5]: greater than 20 μM
enhancement of catalytic activity ([5]; 4 μM Q9692): 1.5 fold
